Values of other authors in PMC7400577 (Scientific Reports, 2020).

Legend:
hGAT3 = target: T1, hGAT3 (Homo sapiens, UniProt P48066); conditions: [3H]GABA uptake, recombinant hGAT3; adapted from Al-Khawaja et al.; cited from earlier work
T1 construct: expressed in transfected cells
T1 sequence (P48066 1-632): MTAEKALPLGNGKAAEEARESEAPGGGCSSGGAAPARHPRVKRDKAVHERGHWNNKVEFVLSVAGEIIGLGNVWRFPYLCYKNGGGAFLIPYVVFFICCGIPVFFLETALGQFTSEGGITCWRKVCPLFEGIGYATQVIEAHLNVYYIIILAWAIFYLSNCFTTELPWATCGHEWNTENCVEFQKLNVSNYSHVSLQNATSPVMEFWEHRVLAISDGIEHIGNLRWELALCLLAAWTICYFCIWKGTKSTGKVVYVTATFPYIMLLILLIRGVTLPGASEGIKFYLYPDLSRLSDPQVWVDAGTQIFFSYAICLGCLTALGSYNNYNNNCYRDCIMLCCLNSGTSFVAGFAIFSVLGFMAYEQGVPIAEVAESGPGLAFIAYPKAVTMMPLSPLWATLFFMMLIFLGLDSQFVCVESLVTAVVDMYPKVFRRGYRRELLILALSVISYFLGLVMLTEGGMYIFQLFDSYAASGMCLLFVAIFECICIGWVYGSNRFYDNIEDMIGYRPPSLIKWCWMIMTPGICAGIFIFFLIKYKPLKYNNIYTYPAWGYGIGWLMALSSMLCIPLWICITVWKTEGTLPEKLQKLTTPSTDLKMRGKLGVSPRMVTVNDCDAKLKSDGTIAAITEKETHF

hBGT1 = target: T2, hBGT1 (Homo sapiens, UniProt P48065); conditions: previously demonstrated; cited from earlier work
T2 construct: expressed in transfected cells
T2 sequence (P48065 1-614): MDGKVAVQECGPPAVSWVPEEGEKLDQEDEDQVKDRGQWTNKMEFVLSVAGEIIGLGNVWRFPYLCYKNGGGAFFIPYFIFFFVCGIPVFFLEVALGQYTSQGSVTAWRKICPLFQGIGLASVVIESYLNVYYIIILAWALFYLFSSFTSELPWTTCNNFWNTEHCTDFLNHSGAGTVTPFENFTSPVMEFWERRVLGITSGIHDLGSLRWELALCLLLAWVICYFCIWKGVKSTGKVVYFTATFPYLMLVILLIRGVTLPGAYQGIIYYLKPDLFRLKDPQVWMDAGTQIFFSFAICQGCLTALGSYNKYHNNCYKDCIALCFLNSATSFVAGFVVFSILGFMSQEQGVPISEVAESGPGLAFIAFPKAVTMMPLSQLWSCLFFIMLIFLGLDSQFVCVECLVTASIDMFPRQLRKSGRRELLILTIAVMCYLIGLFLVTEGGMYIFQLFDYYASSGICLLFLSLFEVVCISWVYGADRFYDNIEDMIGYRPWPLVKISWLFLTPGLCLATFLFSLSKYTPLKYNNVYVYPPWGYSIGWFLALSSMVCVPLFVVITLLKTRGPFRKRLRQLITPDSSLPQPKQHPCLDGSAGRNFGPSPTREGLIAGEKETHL

NC1=NCC(C(=O)O)CN1 (stereo not drawn) [ATPCA, 2-amino-1,4,5,6-tetrahydropyrimidine-5-carboxylic acid, reference compound]
IC50 (hGAT3): 99 µM
pIC50 ± S.E.M. hGAT3 (hGAT3): 4.00 ± 0.03
substrate character at hBGT1 in FMP assay (hBGT1): substrate for hBGT1
